Legend:
Type in all cases: functional
[1] = tested on: Enterocloster clostridioformis; experiment: Antibacterial activity against Clostridium clostridioforme by CLSI M11-A6 agar dilution method
Clostridium hathewayi = experiment: Antibacterial activity against Clostridium hathewayi by CLSI M11-A6 agar dilution method; details: Hungatella hathewayi
Clostridium perfringens = experiment: Antibacterial activity against Clostridium perfringens by CLSI M11-A6 agar dilution method
Thomasclavelia ramosa = experiment: Antibacterial activity against Clostridium ramosum by CLSI M11-A6 agar dilution method
Clostridium subterminale = experiment: Antibacterial activity against Clostridium subterminale by CLSI M11-A6 agar dilution method
Clostridium bartlettii = experiment: Antibacterial activity against Clostridium bartlettii by CLSI M11-A6 agar dilution method; details: Intestinibacter bartlettii
Clostridium beijerinckii = experiment: Antibacterial activity against Clostridium beijerinckii by CLSI M11-A6 agar dilution method
Flavonifractor plautii = experiment: Antibacterial activity against Clostridium orbiscindens by CLSI M11-A6 agar dilution method
[2] = tested on: Clostridium paraputrificum; experiment: Antibacterial activity against Clostridium paraputrificum by CLSI M11-A6 agar dilution method
Clostridium scindens = experiment: Antibacterial activity against Clostridium scindens by CLSI M11-A6 agar dilution method
Clostridium sporogenes = experiment: Antibacterial activity against Clostridium sporogenes by CLSI M11-A6 agar dilution method
Clostridium tertium = experiment: Antibacterial activity against Clostridium tertium by CLSI M11-A6 agar dilution method
Actinomyces naeslundii = experiment: Antibacterial activity against Actinomyces naeslundii by CLSI M11-A6 agar dilution method
[3] = tested on: Bifidobacterium adolescentis; experiment: Antibacterial activity against Bifidobacterium adolescentis by CLSI M11-A6 agar dilution method
Bifidobacterium longum = experiment: Antibacterial activity against Bifidobacterium longum by CLSI M11-A6 agar dilution method
[4] = tested on: Bifidobacterium pseudolongum; experiment: Antibacterial activity against Bifidobacterium pseudolongum by CLSI M11-A6 agar dilution method
Collinsella aerofaciens = experiment: Antibacterial activity against Colinsella aerofaciens by CLSI M11-A6 agar dilution method
[5] = tested on: Propionibacterium propionicum; experiment: Antibacterial activity against Propionibacterium propionicus by CLSI M11-A6 agar dilution method; details: Arachnia propionica
Ruminococcus gnavus = experiment: Antibacterial activity against Ruminococcus gnavus by CLSI M11-A6 agar dilution method; details: Mediterraneibacter gnavus
Ruminococcus albus = experiment: Antibacterial activity against Ruminococcus albus by CLSI M11-A6 agar dilution method; details: Hominimerdicola alba
Ruminococcus lactaris = experiment: Antibacterial activity against Ruminococcus lactaris by CLSI M11-A6 agar dilution method
Ruminococcus torques = experiment: Antibacterial activity against Ruminococcus torques by CLSI M11-A6 agar dilution method; details: Mediterraneibacter torques
Ruminococcus sp. = experiment: Antibacterial activity against Ruminococcus sp. by CLSI M11-A6 agar dilution method
Finegoldia magna = experiment: Antibacterial activity against Finegoldia magna by CLSI M11-A6 agar dilution method
[6] = tested on: Peptoniphilus asaccharolyticus; experiment: Antibacterial activity against Peptoniphilus asaccharolyticus by CLSI M11-A6 agar dilution method
Parvimonas micra = experiment: Antibacterial activity against Peptostreptococcus micros by CLSI M11-A6 agar dilution method
Streptococcus anginosus = experiment: Antibacterial activity against Streptococcus anginosus by CLSI M11-A6 agar dilution method
[7] = tested on: Streptococcus constellatus; experiment: Antibacterial activity against Streptococcus constellatus by CLSI M11-A6 agar dilution method
[8] = tested on: Streptococcus intermedius; experiment: Antibacterial activity against Streptococcus intermedius by CLSI M11-A6 agar dilution method
[9] = tested on: Parabacteroides distasonis; experiment: Antibacterial activity against Parabacteroides distasonis by CLSI M11-A6 agar dilution method
Parabacteroides merdae = experiment: Antibacterial activity against Parabacteroides merdae by CLSI M11-A6 agar dilution method
[10] = tested on: Bacteroides thetaiotaomicron; experiment: Antibacterial activity against Bacteroides thetaiotaomicron by CLSI M11-A6 agar dilution method
Phocaeicola vulgatus = experiment: Antibacterial activity against Bacteroides vulgatus by CLSI M11-A6 agar dilution method
Odoribacter splanchnicus = experiment: Antibacterial activity against Bacteroides splanchnicus by CLSI M11-A6 agar dilution method
Bilophila wadsworthia = experiment: Antibacterial activity against Bilophila wadsworthia by CLSI M11-A6 agar dilution method
Fusobacterium mortiferum = experiment: Antibacterial activity against Fusobacterium mortiferum by CLSI M11-A6 agar dilution method
Fusobacterium varium = experiment: Antibacterial activity against Fusobacterium varium by CLSI M11-A6 agar dilution method
Prevotella bivia = experiment: Antibacterial activity against Prevotella bivia by CLSI M11-A6 agar dilution method
Prevotella denticola = experiment: Antibacterial activity against Prevotella P denticola by CLSI M11-A6 agar dilution method
Prevotella disiens = experiment: Antibacterial activity against Prevotella P disiens by CLSI M11-A6 agar dilution method
Prevotella nigrescens = experiment: Antibacterial activity against Prevotella nigrescens by CLSI M11-A6 agar dilution method
Hoylesella oralis = experiment: Antibacterial activity against Prevotella oralis by CLSI M11-A6 agar dilution method
[11] = tested on: Sutterella wadsworthensis; experiment: Antibacterial activity against Sutterella wadsworthensis by CLSI M11-A6 agar dilution method

CCCCCCCCCC(=O)N[C@@H](Cc1c[nH]c2ccccc12)C(=O)N[C@H](CC(N)=O)C(=O)N[C@@H](CC(=O)O)C(=O)N[C@@H]1C(=O)NCC(=O)N[C@@H](CCCN)C(=O)N[C@@H](CC(=O)O)C(=O)N[C@H](C)C(=O)N[C@@H](CC(=O)O)C(=O)NCC(=O)N[C@H](CO)C(=O)N[C@@H]([C@H](C)CC(=O)O)C(=O)N[C@@H](CC(=O)c2ccccc2N)C(=O)O[C@@H]1C
32 µg/mL: MIC90 (Actinomyces naeslundii) | MIC90 [3] | MIC90 (Bifidobacterium longum) | MIC90 [4] | MIC90 (Collinsella aerofaciens) | MIC90 [5]
64 µg/mL: MIC50 (Thomasclavelia ramosa) | MIC90 (Thomasclavelia ramosa)
1 µg/mL: MIC50 (Clostridium hathewayi) | MIC90 (Clostridium perfringens) | MIC50 (Clostridium subterminale) | MIC50 (Clostridium bartlettii) | MIC50 (Clostridium beijerinckii) | MIC50 (Flavonifractor plautii) | MIC50 [2] | MIC50 (Clostridium scindens) | MIC50 (Clostridium sporogenes) | MIC50 (Clostridium tertium) | MIC50 (Actinomyces naeslundii) | MIC50 [3] | MIC50 (Bifidobacterium longum) | MIC50 [4] | MIC50 (Collinsella aerofaciens) | MIC50 [5] | MIC50 (Ruminococcus albus) | MIC50 (Ruminococcus lactaris) | MIC50 (Ruminococcus torques) | MIC50 (Ruminococcus sp.) | MIC50 (Finegoldia magna) | MIC50 [6] | MIC50 (Parvimonas micra)
2 µg/mL: MIC50 [1] | MIC90 (Clostridium hathewayi) | MIC90 (Clostridium subterminale) | MIC90 (Ruminococcus albus) | MIC90 (Ruminococcus lactaris) | MIC90 (Ruminococcus torques) | MIC50 (Streptococcus anginosus) | MIC50 [7] | MIC50 [8]
0.25 µg/mL: MIC90 (Ruminococcus gnavus)
> 128 µg/mL: MIC [9] | MIC50 [9] | MIC90 [9] | MIC (Parabacteroides merdae) | MIC50 (Parabacteroides merdae) | MIC90 (Parabacteroides merdae) | MIC [10] | MIC50 [10] | MIC90 [10] | MIC (Phocaeicola vulgatus) | MIC50 (Phocaeicola vulgatus) | MIC90 (Phocaeicola vulgatus) | MIC (Odoribacter splanchnicus) | MIC50 (Odoribacter splanchnicus) | MIC90 (Odoribacter splanchnicus) | MIC (Bilophila wadsworthia) | MIC50 (Bilophila wadsworthia) | MIC90 (Bilophila wadsworthia) | MIC (Fusobacterium mortiferum) | MIC50 (Fusobacterium mortiferum) | MIC90 (Fusobacterium mortiferum) | MIC (Fusobacterium varium) | MIC50 (Fusobacterium varium) | MIC90 (Fusobacterium varium) | MIC (Prevotella bivia) | MIC50 (Prevotella bivia) | MIC90 (Prevotella bivia) | MIC (Prevotella denticola) | MIC50 (Prevotella denticola) | MIC90 (Prevotella denticola) | MIC (Prevotella disiens) | MIC50 (Prevotella disiens) | MIC90 (Prevotella disiens) | MIC (Prevotella nigrescens) | MIC50 (Prevotella nigrescens) | MIC90 (Prevotella nigrescens) | MIC (Hoylesella oralis) | MIC50 (Hoylesella oralis) | MIC90 (Hoylesella oralis) | MIC [11] | MIC50 [11] | MIC90 [11]
0.5 µg/mL: MIC50 (Clostridium perfringens)
8 µg/mL: MIC90 (Clostridium bartlettii) | MIC90 (Clostridium beijerinckii) | MIC90 (Flavonifractor plautii) | MIC90 [2] | MIC90 (Clostridium scindens) | MIC90 (Clostridium sporogenes) | MIC90 (Clostridium tertium)
≤ 0.12 µg/mL: MIC50 (Ruminococcus gnavus)
4 µg/mL: MIC90 [1] | MIC90 (Ruminococcus sp.) | MIC90 (Finegoldia magna) | MIC90 [6] | MIC90 (Parvimonas micra) | MIC90 (Streptococcus anginosus) | MIC90 [7] | MIC90 [8]

Source: ChEMBL document CHEMBL1671662, “In vitro activities of telavancin and six comparator agents against anaerobic bacterial isolates” (2009)
